Literature values, collected in patent publication US8420593B1, “Compositions and methods for regulating membrane potential” (priority 2006, dated 2013).
Counter-ions that a name gives are not always drawn. Like-named read-outs stand apart in the source and are kept apart here.

Columns and labels:
[1] = tested on: chronic spinal cord injury; details: in vivo
spinal cord injury [2] = details: days 25, 26 and 27
[3] = tested on: potassium currents in PC12 cells
spinal cord injury [4] = tested on: spinal cord injury

Row | SMILES | side effects associated with central nervous system activation [1] | motor function (open field walking analysis) (spinal cord injury [2]; 0.6 mg/kg, ip, compared with HP184) | activity on sodium channels (sodium channels) | activity on potassium currents [3] | motor function (open field walking analysis) (spinal cord injury [2]; 3, 10 and 20 mg/kg, po, established (25 day post injury) injury, mild intensity) | motor function (open field walking) (spinal cord injury [4]; 3 mg/kg, po, long-standing (35 day post injury) injury, moderate intensity) | improvement in walking ability, multiple dose studies (spinal cord injury [4]; once a day oral dosing at 3, 1 and 0.3 mg/kg, moderately injured rats, compression model)
1 | Nc1ccncc1 [4-AP, 4-aminopyridine] | restlessness, confusion, and infrequently reported findings of generalized tonic-clonic seizure | This improvement was equaled by the improvement observed with 4-AP | – | – | – | – | –
2 | CCCN(c1ccncc1F)n1cc(C)c2ccccc21 [HP184, N-[N-propyl]-N-[3-fluoro-4-pyridinyl]-1H-3-methylindole-1-amine hydrochloride] | – | – | use- and frequency dependent blocker of sodium channels | voltage dependent blocker of potassium currents | significantly improved motor function | significantly improved motor function | confirmed the effectiveness
